Laboratory results from US20240383905A1, “FGFR INHIBITORS AND METHODS OF USE THEREOF” (3H PHARMACEUTICALS CO., LTD., priority 2021, published 2024).
Like-named read-outs stand apart in the source and are kept apart here.

Key:
FGFR3 = molecular target: T1, FGFR3 (Homo sapiens, UniProt P22607); assay: FGFR3 Biochemical Caliper Assay (KinEASE-TK kit); details: ratio FGFR3/FGFR2 of the biochemical assay
T1 construct: purchased Carna 08-135
Description: (§1) Compounds of the present invention were tested in a FGFR1, FGFR2, and FGFR3 Biochemical Caliper Assay. Enzyme activity was monitored using KinEASE-TK kit (CisBio, Cat.No. 62TK0PEC) according to manufacturer's instructions. […] Final enzyme concentration was 0.2 nM for FGFR1 and FGFR3, 0.07 nM for FGFR2. Compounds were prepared in 10 mM DMSO and serially diluted into 10 concentrations by 3-fold dilution. Prior to the initiation of the reaction by adding TK-substrate/ATP mixture, the compounds were incubated with protein for 10 min at RT. […] Plates were quenched by adding TK-antibody-Cryptate and Sa-XL665 mixture. After 60 min in the stop solution, read the signal on microplate reader (Molecular Devices, i3x), excitation of 320 nm and emission of 615 nm and 665 nm with a […]. IC50 values were calculated using Prism 7 (GraphPad).

SNU16 cells = assay: SNU16 Cancer Cell Line Proliferation Assay (CellTiter-Glo); type: cell-based
Description: Compounds of the present invention were also tested in a SNU16 Cancer Cell Line Proliferation Assay.
SNU16 cells were plated in 96-well clear bottom/white plate(Costar, Cat.No. 3610) at 5000 cells/well in 100 μl medium. Test compounds were prepared in a 10 mM DMSO stock solution and serially diluted into 9 concentrations by 3-fold dilution. 0.5 μl of each concentration of compound was added into the cell culture plates and DMSO as a control. The plates were incubated for 72 h at 37° C. and 5% CO2 incubator. 50 μl CellTiter-Glo reagent (Promega, G7572) was added into each well and then the plates were shaken gently for 10 min at room temperature. Luminescence was read on microplate reader (Molecular Devices, i3x), IC50 values were calculated using Prism 7 (GraphPad).

FGFR1 = molecular target: T2, FGFR1 (Homo sapiens, UniProt P11362); assay: FGFR1 Biochemical Caliper Assay (KinEASE-TK kit); details: ratio FGFR1/FGFR2 of the biochemical assay
T2 construct: purchased Carna 08-133
Description: as §1

FGFR2 = molecular target: T3, FGFR2 (Homo sapiens, UniProt P21802); assay: FGFR2 Biochemical Caliper Assay (KinEASE-TK kit); details: 0.07 nM FGFR2; compound incubated with protein 10 min, reaction 45 min at RT; read-out: FGFR2 Cliper IC50
T3 construct: purchased Carna 08-134
Description: Compounds of the present invention were tested in a FGFR1, FGFR2, and FGFR3 Biochemical Caliper Assay.
as §1, with “Enzyme” for “Compounds of the present invention were tested in a FGFR1, FGFR2, and FGFR3 Biochemical Caliper Assay. Enzyme”

T3 sequence (P21802 22-821): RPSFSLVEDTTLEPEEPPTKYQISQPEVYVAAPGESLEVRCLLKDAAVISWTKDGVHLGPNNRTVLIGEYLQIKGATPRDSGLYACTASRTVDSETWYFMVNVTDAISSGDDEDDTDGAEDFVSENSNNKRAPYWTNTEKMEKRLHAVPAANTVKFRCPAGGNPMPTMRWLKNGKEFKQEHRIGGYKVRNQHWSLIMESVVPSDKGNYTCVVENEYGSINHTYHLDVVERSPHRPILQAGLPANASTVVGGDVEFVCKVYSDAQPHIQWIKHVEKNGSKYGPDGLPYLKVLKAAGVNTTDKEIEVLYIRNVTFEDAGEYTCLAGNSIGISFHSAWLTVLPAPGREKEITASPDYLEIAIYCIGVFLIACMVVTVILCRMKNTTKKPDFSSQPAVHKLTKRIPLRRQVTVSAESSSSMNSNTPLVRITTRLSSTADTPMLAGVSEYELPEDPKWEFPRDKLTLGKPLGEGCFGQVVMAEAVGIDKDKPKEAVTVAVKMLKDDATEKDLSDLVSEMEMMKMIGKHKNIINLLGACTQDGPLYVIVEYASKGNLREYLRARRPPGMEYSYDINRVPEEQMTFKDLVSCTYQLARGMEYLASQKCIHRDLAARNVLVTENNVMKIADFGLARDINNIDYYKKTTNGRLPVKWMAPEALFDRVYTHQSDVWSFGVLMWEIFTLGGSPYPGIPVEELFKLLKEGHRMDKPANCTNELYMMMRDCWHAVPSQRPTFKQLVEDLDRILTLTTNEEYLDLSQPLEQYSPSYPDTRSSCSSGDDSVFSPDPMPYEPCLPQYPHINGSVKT
T2 sequence (P11362 22-822): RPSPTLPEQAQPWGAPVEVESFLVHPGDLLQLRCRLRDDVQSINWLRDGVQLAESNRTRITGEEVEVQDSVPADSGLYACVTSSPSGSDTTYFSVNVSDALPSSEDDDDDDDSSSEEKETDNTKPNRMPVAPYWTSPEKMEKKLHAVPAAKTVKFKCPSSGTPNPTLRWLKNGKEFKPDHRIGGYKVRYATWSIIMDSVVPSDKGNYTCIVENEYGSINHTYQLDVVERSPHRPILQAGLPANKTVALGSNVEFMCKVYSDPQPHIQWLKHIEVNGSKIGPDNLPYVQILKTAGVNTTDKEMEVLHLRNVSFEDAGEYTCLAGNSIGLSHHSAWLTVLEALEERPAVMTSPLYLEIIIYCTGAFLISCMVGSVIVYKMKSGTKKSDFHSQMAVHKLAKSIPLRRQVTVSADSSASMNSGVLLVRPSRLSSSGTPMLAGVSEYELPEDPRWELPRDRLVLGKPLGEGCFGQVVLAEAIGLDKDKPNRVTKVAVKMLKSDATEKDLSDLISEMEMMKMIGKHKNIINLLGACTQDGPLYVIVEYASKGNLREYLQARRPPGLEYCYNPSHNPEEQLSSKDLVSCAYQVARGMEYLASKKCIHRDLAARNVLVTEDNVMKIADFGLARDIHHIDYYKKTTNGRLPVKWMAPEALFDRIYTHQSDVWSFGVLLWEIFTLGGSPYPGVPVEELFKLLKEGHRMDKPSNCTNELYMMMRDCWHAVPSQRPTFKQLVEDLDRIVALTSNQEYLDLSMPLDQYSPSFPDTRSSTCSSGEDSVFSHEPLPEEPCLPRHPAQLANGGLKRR
T1 sequence (P22607 23-806): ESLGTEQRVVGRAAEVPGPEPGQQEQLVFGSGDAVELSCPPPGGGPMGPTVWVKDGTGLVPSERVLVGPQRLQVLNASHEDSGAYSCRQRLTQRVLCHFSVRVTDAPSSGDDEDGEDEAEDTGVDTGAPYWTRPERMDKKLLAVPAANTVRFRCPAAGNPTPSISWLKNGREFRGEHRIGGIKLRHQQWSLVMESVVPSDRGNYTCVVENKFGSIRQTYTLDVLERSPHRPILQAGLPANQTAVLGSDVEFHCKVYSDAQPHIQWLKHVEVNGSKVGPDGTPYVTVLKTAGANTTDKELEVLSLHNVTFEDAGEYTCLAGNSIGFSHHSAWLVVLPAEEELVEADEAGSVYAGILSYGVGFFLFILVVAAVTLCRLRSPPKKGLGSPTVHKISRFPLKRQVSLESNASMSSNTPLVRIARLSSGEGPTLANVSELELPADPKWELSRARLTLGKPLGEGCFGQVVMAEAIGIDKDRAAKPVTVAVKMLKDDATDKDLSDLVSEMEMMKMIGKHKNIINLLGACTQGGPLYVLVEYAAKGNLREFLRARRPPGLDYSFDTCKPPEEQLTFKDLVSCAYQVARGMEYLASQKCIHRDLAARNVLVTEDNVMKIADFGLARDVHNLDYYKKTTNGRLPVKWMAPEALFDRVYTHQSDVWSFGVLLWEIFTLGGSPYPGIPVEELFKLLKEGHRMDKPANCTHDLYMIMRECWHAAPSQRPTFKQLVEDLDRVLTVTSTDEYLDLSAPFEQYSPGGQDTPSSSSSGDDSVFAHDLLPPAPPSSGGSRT

IC50 (SNU16 cells; Homo sapiens, SNU-16, 72 h) [nM]	IC50 (FGFR2) [nM]	IC50 (SNU16 cells; 72 h, read-out: Cell SNU-16 IC50) [nM]	Compound	Selectivity FGFR3/FGFR2 (FGFR3)	Selectivity FGFR1/FGFR2 (FGFR1)
> 50	< 5	–	C=CC(=O)Nc1ccc(-c2c(-c3ccc(Oc4nccc(C)n4)c(OC)c3)c3c(N)ncc(C(N)=O)c3n2C)cc1 [Compound 21, 2-(4-acrylamidophenyl)-4-amino-3-(3-methoxy-4-((4-methylpyrimidin-2-yl)oxy)phenyl)-1-methyl-1H-pyrrolo[3,2-c]pyridine-7-carboxamide]	A (Selectivity of FGFR3/FGFR2 less than 150 but greater than or equal to 100)	A+ (Selectivity of FGFR1/FGFR2 greater or equal to 500)
≤ 10	< 5	–	C=CC(=O)Nc1ccc(-c2[nH]c3c(C#N)cnc(N)c3c2-c2ccc(Oc3nccc(C)n3)c(OC)c2)cc1 [Compound 22, N-(4-(4-amino-7-cyano-3-(3-methoxy-4-((4-methylpyrimidin-2-yl)oxy)phenyl)-1H-pyrrolo[3,2-c]pyridin-2-yl)phenyl)acrylamide]	B (Selectivity of FGFR3/FGFR2 less than 100 but greater than or equal to 25)	A (Selectivity of FGFR1/FGFR2 less than 500 but greater than or equal to 300)
≤ 10	< 5	–	C=CC(=O)Nc1ccc(-c2[nH]c3c(C#N)cnc(N)c3c2-c2ccc(C(=O)NC3CC3)c(OC)c2)cc1 [Compound 23, 4-(2-(4-acrylamidophenyl)-4-amino-7-cyano-1H-pyrrolo[3,2-c]pyridin-3-yl)-N-cyclopropyl-2-methoxybenzamide]	A (Selectivity of FGFR3/FGFR2 less than 150 but greater than or equal to 100)	A+ (Selectivity of FGFR1/FGFR2 greater or equal to 500)
≤ 10	< 5	–	C=CC(=O)Nc1ccc(-c2nn3ncnc(N)c3c2-c2ccc(C(=O)NC3CCC3)c(OC)c2)cc1 [Compound 26, 4-(6-(4-acrylamidophenyl)-4-aminopyrazolo[5,1-f][1,2,4]triazin-5-yl)-N-cyclobutyl-2-methoxybenzamide]	B (Selectivity of FGFR3/FGFR2 less than 100 but greater than or equal to 25)	A (Selectivity of FGFR1/FGFR2 less than 500 but greater than or equal to 300)
≤ 10	< 5	–	C=CC(=O)Nc1ccc(-c2nn3ncnc(N)c3c2-c2ccc(C(=O)NCC(F)(F)F)c(OC)c2)cc1 [Compound 42, 4-(6-(4-acrylamidophenyl)-4-aminopyrazolo[5,1-f] [1,2,4]triazin-5-yl)-2-methoxy-N-(2,2,2-trifluoroethyl)benzamide]	A (Selectivity of FGFR3/FGFR2 less than 150 but greater than or equal to 100)	A (Selectivity of FGFR1/FGFR2 less than 500 but greater than or equal to 300)
≤ 10	< 5	–	C=CC(=O)Nc1ccc(-c2nn3ncnc(N)c3c2-c2ccc(C(=O)NCC3CCC3)c(OC)c2)cc1 [Compound 45, 4-(6-(4-acrylamidophenyl)-4-aminopyrazolo[5,1-f] [1,2,4]triazin-5-yl)-N-(cyclobutylmethyl)-2-methoxybenzamide]	B (Selectivity of FGFR3/FGFR2 less than 100 but greater than or equal to 25)	B (Selectivity of FGFR1/FGFR2 less than 300 but greater than or equal to 200)
≤ 10	< 5	–	C=CC(=O)Nc1ccc(-c2nn3ncnc(N)c3c2-c2ccc(C(=O)NCC3(C#N)CC3)c(OC)c2)cc1 [Compound 47, 4-(6-(4-acrylamidophenyl)-4-aminopyrazolo[5,1-f] [1,2,4]triazin-5-yl)-N-((1-cyanocyclopropyl)methyl)-2-methoxybenzamide]	B (Selectivity of FGFR3/FGFR2 less than 100 but greater than or equal to 25)	B (Selectivity of FGFR1/FGFR2 less than 300 but greater than or equal to 200)
–	< 5	≤ 10	C=C(F)C(=O)Nc1ccc(-c2nn3ncnc(N)c3c2-c2ccc(C(=O)NCC(C)C)cc2)cc1 [Compound 48, 4-(4-amino-6-(4-(2-fluoroacrylamido)phe-nyl)pyrazolo[5,1-f] [1,2,4]triazin-5-yl)-N-isobutylbenzamide]	B (Selectivity of FGFR3/FGFR2 less than 100 but greater than or equal to 25)	A+ (Selectivity of FGFR1/FGFR2 greater or equal to 500)
≤ 10	< 5	–	C=CC(=O)Nc1ccc(-c2nn3ncnc(N)c3c2-c2ccc(C(=O)NC3CCCC3)c(OC)c2)cc1 [Compound 55, 4-(6-(4-acrylamidophenyl)-4-aminopyrazolo[5,1-f] [1,2,4]triazin-5-yl)-N-cyclopentyl-2-methoxybenzamide]	A (Selectivity of FGFR3/FGFR2 less than 150 but greater than or equal to 100)	A+ (Selectivity of FGFR1/FGFR2 greater or equal to 500)
≤ 10	5 to 10	–	C=CC(=O)Nc1ccc(-c2nn3ncnc(N)c3c2-c2ccc(C(=O)NCC(C)(C)OC)c(OC)c2)cc1 [Compound 56, 4-(6-(4-acrylamidophenyl)-4-aminopyrazolo[5,1-f] [1,2,4]triazin-5-yl)-2-methoxy-N-(2-methoxy-2-methylpropyl)benzamide]	A (Selectivity of FGFR3/FGFR2 less than 150 but greater than or equal to 100)	A+ (Selectivity of FGFR1/FGFR2 greater or equal to 500)
–	5 to 10	–	C=CC(=O)Nc1ccc(-c2nn3ncnc(N)c3c2-c2ccc(C(=O)NC3(C#N)CC3)c(OC)c2)cc1 [Compound 268, 4-(6-(4-acrylamidophenyl)-4-aminopyrazolo[5,1-f][1,2,4]triazin-5-yl)-N-(1-cyanocyclopropyl)-2-methoxybenzamide]	A+ (Selectivity of FGFR3/FGFR2 greater or equal to 150)	C (Selectivity of FGFR1/FGFR2 less than 200 but greater than or equal to 100)
–	< 5	–	C=C(F)C(=O)Nc1ccc(-c2[nH]c3c(C#N)cnc(N)c3c2-c2ccc(C(=O)NC3CC3(F)F)c(OC)c2)cc1 (stereo not shown) [Compound 320, 4-(4-amino-7-cyano-2-(4-(2-fluoroacrylamido)phe-nyl)-1H-pyrrolo[3,2-c]pyridin-3-yl)-N-(2,2-difluorocyclopropyl)-2-methoxybenzamide]	A (Selectivity of FGFR3/FGFR2 less than 150 but greater than or equal to 100)	C (Selectivity of FGFR1/FGFR2 less than 200 but greater than or equal to 100)
–	> 10	–	C=CC(=O)Nc1ccc(-c2c(-c3ccc(C(=O)NC4CC4)c(OC)c3)c3c(N)ncc(C#N)c3n2C2CC2)cc1 [Compound 359, 4-(2-(4-acrylamidophenyl)-4-amino-7-cyano-1-cyclopropyl-1H-pyrrolo[3,2-c]pyridin-3-yl)-N-cyclopropyl-2-methoxybenzamide]	B (Selectivity of FGFR3/FGFR2 less than 100 but greater than or equal to 25)	A+ (Selectivity of FGFR1/FGFR2 greater or equal to 500)
–	> 10	–	C=C(F)C(=O)Nc1ccc(-c2nn3ncnc(N)c3c2-c2ccc(C(=O)NCC(C)(F)F)c(OC)c2)cc1 [Compound 362, 4-(4-amino-6-(4-(2-fluoroacrylamido)phe-nyl)pyrazolo[5,1-f][1,2,4]triazin-5-yl)-N-(2,2-difluoropropyl)-2-methoxybenzamide]	A (Selectivity of FGFR3/FGFR2 less than 150 but greater than or equal to 100)	A+ (Selectivity of FGFR1/FGFR2 greater or equal to 500)
–	> 10	–	C=CC(=O)Nc1ccc(-c2nn3ncnc(N)c3c2-c2ccc(Oc3ncc(C)cn3)c(F)c2)cc1 [Compound 376, N-(4-(4-amino-5-(3-fluoro-4-((5-methylpyrimidin-2-yl)oxy)phenyl)pyrazolo [5,1-f][1,2,4]triazin-6-yl)phenyl)acrylamide]	A+ (Selectivity of FGFR3/FGFR2 greater or equal to 150)	A+ (Selectivity of FGFR1/FGFR2 greater or equal to 500)
